This is an account of results in patent publication US12037386B2, “Antibodies to PfGARP kill Plasmodium falciparum malaria parasites and protect against infection and severe disease” (priority 2020, dated 2024).

Read-outs that look alike come from different tables or passages of the source.

One assay concerns Ring stage 3D7 parasites. The assay is described as follows: Food vacuole integrity, Fluo-4-AM confocal microscopy. The format is cell-based, Plasmodium falciparum. As to conditions: 1 μM, positive control, 24 hours. How it is done: FIG. 17 are images showing that anti-PfGARP disrupts food vacuole integrity. Ring stage 3D7 parasites were treated with pre-immune sera (1:10), 1 μM chloroquine, or anti-PfGARP antisera (1:10) for 24 hours, followed by staining with DAPI and Fluo-4-AM. […] Data are representative of 2 independent experiments.
The impact of anti-PfGARP antibodies on food vacuole integrity by confocal microscopy was evaluated using the calcium binding dye Fluo-4-AM, which preferentially labels the food vacuole and has been used to distinguish the food vacuole from the endoplasmic reticulum (Zhang, M. et al. Science 360 (2018)).
The impact of anti-PfGARP antibodies on food vacuole integrity was further evaluated by confocal microscopy using the calcium binding dye Fluo-4-AM, which specifically labels the food vacuole. Ring stage 3D7 parasites were incubated with culture media (negative control), 1 μM chloroquine (positive control), or anti-PfGARP prepared by rPfGARP-A immunization for 24 hours. Parasites were washed with 1×PBS three times and incubated with Fluo-4-AM (a cell-permeable calcium-sensing dye that fluoresces green when bound with Ca^+2) at a final concentration of 2 μM and DAPI for 30 minutes, at 37° C. The parasites were washed with 1×PBS and observed under a fluorescent microscope.

Assay [1] has as its system food vacuole of parasites. As to conditions: cited from earlier work.

For the compound `CCN(CC)CCCC(C)Nc1ccnc2cc(Cl)ccc12` (stereo not drawn) [chloroquine], the “food vacuole integrity (Fluo-4-AM redistribution)” value with Ring stage 3D7 parasites was “disrupts the food vacuole leading to dispersion of the dye into the parasite's cytosol”. Moreover, the “effect on food vacuole” value is reported as “disrupts the food vacuole membrane” in assay [1] (high concentrations (3 μM)) and “marked food vacuole swelling, but no extravasation of hemozoin into the cytoplasm” in assay [1] (lower concentrations (68 nM)).
